Key:
rice (Oryza sativa) = test: Test B flooded paddy test, visual rating 0-100 (0 no effect, 100 complete control); details: Flood, 250 g ai/ha, applied to paddy water, rated after 13 to 15 days
[1] = test system: barnyardgrass (Echinochloa crus-galli); test: Test B flooded paddy test, visual rating 0-100; details: Flood, 250 g ai/ha, applied to paddy water, rated after 13 to 15 days
kochia (Kochia scoparia) [2] = test: Test A preemergence, visual injury rating 0-100; assay type: in vivo
[3] = test system: ragweed (common ragweed, Ambrosia elatior); test: Test A preemergence, visual injury rating 0-100; assay type: in vivo
[4] = test system: ryegrass, Italian (Italian ryegrass, Lolium multiflorum); test: Test A preemergence, visual injury rating 0-100; assay type: in vivo
[5] = test system: foxtail, giant (giant foxtail, Setaria faberii); test: Test A preemergence, visual injury rating 0-100; assay type: in vivo
[6] = test system: pigweed (Amaranthus retroflexus); test: Test A preemergence, visual injury rating 0-100; assay type: in vivo
[7] = test system: wheat (Triticum aestivum); test: Test A postemergence, visual injury rating 0-100; assay type: in vivo; details: 0 to 100 scale
kochia (Kochia scoparia) [8] = test: Test A postemergence, visual injury rating 0-100; assay type: in vivo; details: 0 to 100 scale
[9] = test system: galium (catchweed bedstraw, Galium aparine); test: Test A postemergence, visual injury rating 0-100; assay type: in vivo; details: 0 to 100 scale
[10] = test system: ragweed (common ragweed, Ambrosia elatior); test: Test A postemergence, visual injury rating 0-100; assay type: in vivo; details: 0 to 100 scale
corn (Zea mays) = test: Test A postemergence, visual injury rating 0-100; assay type: in vivo; details: 0 to 100 scale
[11] = test system: ryegrass, Italian (Italian ryegrass, Lolium multiflorum); test: Test A postemergence, visual injury rating 0-100; assay type: in vivo; details: 0 to 100 scale
[12] = test system: foxtail, giant (giant foxtail, Setaria faberii); test: Test A postemergence, visual injury rating 0-100; assay type: in vivo; details: 0 to 100 scale
[13] = test system: pigweed (Amaranthus retroflexus); test: Test A postemergence, visual injury rating 0-100; assay type: in vivo; details: 0 to 100 scale
[14] = test system: blackgrass (Alopecurus myosuroides); test: Test A postemergence, visual injury rating 0-100; assay type: in vivo; details: 0 to 100 scale
[15] = test system: barnyardgrass (Echinochloa crus-galli); test: Test A postemergence, visual injury rating 0-100; assay type: in vivo; details: 0 to 100 scale
[16] = test system: barnyardgrass (Echinochloa crus-galli); test: Test A preemergence, visual injury rating 0-100 (0 no effect, 100 complete control); assay type: in vivo
[17] = test system: ducksalad (Heteranthera limosa); test: Test B flooded paddy test, visual rating 0-100; details: Flood, 250 g ai/ha, applied to paddy water, rated after 13 to 15 days

Row | Compound | Rice plant response rating (0 to 100 scale) (rice (Oryza sativa)) | Barnyardgrass plant response rating (0 to 100 scale) [1] | Kochia plant response rating (0 to 100 scale) (kochia (Kochia scoparia) [2]; 125 g ai/ha) | Kochia plant response rating (0 to 100 scale) (kochia (Kochia scoparia) [2]; 500 g ai/ha) | Ragweed plant response rating (0 to 100 scale) ([3]; 125 g ai/ha) | Ragweed plant response rating (0 to 100 scale) ([3]; 500 g ai/ha) | Ryegrass, Italian plant response rating (0 to 100 scale) ([4]; 125 g ai/ha) | Ryegrass, Italian plant response rating (0 to 100 scale) ([4]; 500 g ai/ha) | Foxtail, Giant plant response rating (0 to 100 scale) ([5]; 125 g ai/ha) | Foxtail, Giant plant response rating (0 to 100 scale) ([5]; 500 g ai/ha) | Pigweed plant response rating (0 to 100 scale) ([6]; 125 g ai/ha) | Pigweed plant response rating (0 to 100 scale) ([6]; 500 g ai/ha) | Wheat plant response rating ([7]; 125 g ai/ha) | Wheat plant response rating ([7]; 500 g ai/ha) | Kochia plant response rating (kochia (Kochia scoparia) [8]; 125 g ai/ha) | Kochia plant response rating (kochia (Kochia scoparia) [8]; 500 g ai/ha) | Galium plant response rating ([9]; 125 g ai/ha) | Galium plant response rating ([9]; 500 g ai/ha) | Ragweed plant response rating ([10]; 125 g ai/ha) | Ragweed plant response rating ([10]; 500 g ai/ha) | other results
1 | CC1=[N+]([O-])C(C(=O)Nc2cccc(F)c2F)C(c2cc(C)nc(OC(F)F)c2)C1 (racemic) [Compound 83] | 0 | 80 | 0 | 50 | 10 | 90 | 70 | 90 | 90 | 90 | 60 | 90 | 60 | 80 | 30 | 50 | 60 | 70 | 30 | 70 | Corn plant response rating (corn (Zea mays); 125 g ai/ha): 70; Corn plant response rating (corn (Zea mays); 500 g ai/ha): 90; Ryegrass, Italian plant response rating ([11]; 125 g ai/ha): 60; Ryegrass, Italian plant response rating ([11]; 500 g ai/ha): 80; Foxtail, Giant plant response rating ([12]; 125 g ai/ha): 80; Foxtail, Giant plant response rating ([12]; 500 g ai/ha): 90; Pigweed plant response rating ([13]; 125 g ai/ha): 30; Pigweed plant response rating ([13]; 500 g ai/ha): 80; Blackgrass plant response rating ([14]; 125 g ai/ha): 70; Blackgrass plant response rating ([14]; 500 g ai/ha): 80; Barnyardgrass plant response rating ([15]; 125 g ai/ha): 80; Barnyardgrass plant response rating ([15]; 500 g ai/ha): 90; Barnyardgrass plant response rating (0 to 100 scale) ([16]; 125 g ai/ha): 90; Barnyardgrass plant response rating (0 to 100 scale) ([16]; 500 g ai/ha): 90; Ducksalad plant response rating (0 to 100 scale) [17]: 75
2 | CC1=[N+]([O-])C(C(=O)Nc2cccc(F)c2F)C(c2cc(F)c(F)c(Oc3ncc(F)cn3)c2)C1 (racemic) [Compound 85] | 0 | 0 | 0 | 10 | 0 | 0 | 60 | 90 | 80 | 100 | 50 | 0 | 50 | 90 | 0 | 0 | 20 | 30 | 0 | 0 | Corn plant response rating (corn (Zea mays); 125 g ai/ha): 60; Corn plant response rating (corn (Zea mays); 500 g ai/ha): 90; Ryegrass, Italian plant response rating ([11]; 125 g ai/ha): 0; Ryegrass, Italian plant response rating ([11]; 500 g ai/ha): 60; Foxtail, Giant plant response rating ([12]; 125 g ai/ha): 60; Foxtail, Giant plant response rating ([12]; 500 g ai/ha): 80; Pigweed plant response rating ([13]; 125 g ai/ha): 0; Pigweed plant response rating ([13]; 500 g ai/ha): 0; Blackgrass plant response rating ([14]; 125 g ai/ha): 60; Blackgrass plant response rating ([14]; 500 g ai/ha): 80; Barnyardgrass plant response rating ([15]; 125 g ai/ha): 40; Barnyardgrass plant response rating ([15]; 500 g ai/ha): 80; Barnyardgrass plant response rating (0 to 100 scale) ([16]; 125 g ai/ha): 80; Barnyardgrass plant response rating (0 to 100 scale) ([16]; 500 g ai/ha): 100; Ducksalad plant response rating (0 to 100 scale) [17]: 0
3 | CC1=[N+]([O-])C(C(=O)Nc2cccc(F)c2F)C(c2cc(C)n(Cc3ccc(Cl)cc3)c(=O)c2)C1 (racemic) [Compound 86] | 0 | 0 | 0 | 0 | 0 | 0 | 0 | 0 | 0 | 0 | 0 | 0 | 0 | 0 | 0 | 0 | 0 | 0 | 0 | 0 | Corn plant response rating (corn (Zea mays); 125 g ai/ha): 0; Corn plant response rating (corn (Zea mays); 500 g ai/ha): 10; Ryegrass, Italian plant response rating ([11]; 125 g ai/ha): 0; Ryegrass, Italian plant response rating ([11]; 500 g ai/ha): 0; Foxtail, Giant plant response rating ([12]; 125 g ai/ha): 0; Foxtail, Giant plant response rating ([12]; 500 g ai/ha): 0; Pigweed plant response rating ([13]; 125 g ai/ha): 0; Pigweed plant response rating ([13]; 500 g ai/ha): 0; Blackgrass plant response rating ([14]; 125 g ai/ha): 0; Blackgrass plant response rating ([14]; 500 g ai/ha): 0; Barnyardgrass plant response rating ([15]; 125 g ai/ha): 0; Barnyardgrass plant response rating ([15]; 500 g ai/ha): 0; Barnyardgrass plant response rating (0 to 100 scale) ([16]; 125 g ai/ha): 0; Barnyardgrass plant response rating (0 to 100 scale) ([16]; 500 g ai/ha): 0; Ducksalad plant response rating (0 to 100 scale) [17]: 0
4 | CC1=[N+]([O-])C(C(=O)Nc2cccc(F)c2F)C(c2ccc(C(F)(F)F)c(C)c2)C1 (racemic) [Compound 87] | 0 | 50 | 10 | 80 | 0 | 70 | 90 | 90 | 90 | 90 | 100 | 100 | 70 | 80 | 10 | 70 | 0 | 70 | 10 | 30 | Corn plant response rating (corn (Zea mays); 125 g ai/ha): 70; Corn plant response rating (corn (Zea mays); 500 g ai/ha): 80; Ryegrass, Italian plant response rating ([11]; 125 g ai/ha): 70; Ryegrass, Italian plant response rating ([11]; 500 g ai/ha): 90; Foxtail, Giant plant response rating ([12]; 125 g ai/ha): 60; Foxtail, Giant plant response rating ([12]; 500 g ai/ha): 90; Pigweed plant response rating ([13]; 125 g ai/ha): 0; Pigweed plant response rating ([13]; 500 g ai/ha): 50; Blackgrass plant response rating ([14]; 125 g ai/ha): 70; Blackgrass plant response rating ([14]; 500 g ai/ha): 90; Barnyardgrass plant response rating ([15]; 125 g ai/ha): 80; Barnyardgrass plant response rating ([15]; 500 g ai/ha): 90; Barnyardgrass plant response rating (0 to 100 scale) ([16]; 125 g ai/ha): 90; Barnyardgrass plant response rating (0 to 100 scale) ([16]; 500 g ai/ha): 90; Ducksalad plant response rating (0 to 100 scale) [17]: 85

Reference: patent publication US11498899B2, “Nitrone herbicides” (FMC Corporation, priority 2016, dated 2022)
